We go through three molecules from patent US11987807B2, “Isolated human lung progenitor cells and uses thereof” (THE GENERAL HOSPITAL CORPORATION, priority 2012, dated 2024).

The subject of assay [1] is human Cystic Fibrosis iPSC-derived definitive endoderm cells. The assay can be described thus: Anteriorization of human Cystic Fibrosis iPSC-derived definitive endoderm (SOX2 induction). It is filed as cell-based. The procedure: FIG. 6 is a schematic depicting an exemplary strategy and time line to generate Nkx2.1+ lung multipotent progenitors from human iPSCs. Data from the experiment indicate a step-wise differentiation of Nkx2.1+ lung progenitors from human iPSCs. A high yield of definitive endoderm from CF1 RiPS cells was obtained after treatment for 4 days in RPMI-1640 media in the presence of 2% B27 supplement, Activin A (100 ng/ml) and 5 μM PI3 Kinase inhibitor LY294002 with more than 90% of cells co-expressing transcription factors SOX17 and FOXA2 (data not shown). Anteriorization of endoderm into foregut endoderm cells was observed by detecting SOX2 expression in Foxa2+ cells derived from CF1 RiPS cells after 4 days of treatment with 500 nM A-83-01 (TGFβ antagonist) and 100 ng/ml Noggin (BMP4 antagonist) (data not shown). NKX2.1 staining was performed after anteriorization to foregut cells at D8 with serum-free medium containing 20 ng/ml BMP4, 20 ng/ml FGF2 and 5 nM GSK3iXV for 4 days (data not shown). […] In addition, confocal images following immunofluorescence staining indicates some Nkx2.1+ sphere contain basal cells positive for p63 (data not shown).
By using anteriorization conditions similar to Green et al., the induction of SOX2 expression in DE cells was obtained with efficiencies of up to 50%-60% after 4 days of treatment with A-83-01 (a TGFβ antagonist; data not shown). […]

Assay [2] concerns mouse ES cell-derived definitive endoderm. The assay can be described thus: Anteriorization of mouse ESC-derived definitive endoderm to FoxA2+Sox2+ anterior foregut endoderm. The note with it: TGFβ inhibition, 2 days. It is filed as cell-based.
Method: This technology was adapted herein to generate definitive endoderm (DE) from mouse ES cells. […] Next, it was asked if the newly generated DE cells have the competence to generate Nkx2.1+ cells. […] Since the inventors had already incorporated BMP inhibition during DE generation (FIG. 7), the question whether continuous BMP inhibition is necessary for anteriorization or if TGFβ inhibition alone was sufficient for anterior patterning was explored. Endoderm was treated with combinations of Activin (a TGFβ agonist), A-83-01 (a TGFβ antagonist), BMP4, and Dorsomorphin (a BMP4 antagonist) for 2 days (FIG. 2B). The number of FoxA2+Sox2+ anterior endoderm cells was compared to the total number of FoxA2+ endoderm cells (FIG. 2B). The treated cells were further exposed to the BMP4/FGF2/WNT agonist cocktail for another 2 days to examine their competence to generate Nkx2.1+ cells (FIG. 2B). […] It was tested if their inhibition would enhance anteriorization together with a TGFβ inhibitor.
Mouse Endoderm Anteriorization and Nkx2.1 Cell Differentiation: Mouse definitive endoderm was generated as described herein. To anteriorize endoderm, on and after day 5, the cells were split and re-seeded on to the plates pre-coated with 804G-conditioned medium and fed with DO medium+0.5-1 μM A8301 (CalBiochem, 616454) for 2 days. Then the media was rinsed with DO medium 2 times and switched to DO medium supplemented with 50 ng/ml BMP4, 100 ng/ml FGF2 (GIBCO, PHG0026), and 5-10 nM GSK3iXV for another 2-3 days. To generate Nkx2.1+Sox2+ proximal progenitor cells, the cells were rinsed with DO medium 2 times and switched to DO medium containing RA-supplemented B27, 50 ng/ml BMP7, 50 ng/ml FGF7, 100 nM IWR-1, and 1-2 μM PD98059 for 2 days or longer times.
Immunofluorescence: At each differentiation step, the cells were fixed with fresh paraformaldehyde (4%) for 15 min at room temperature, rinsed in PBS, washed with PBS+0.2% Triton X-100 and incubated with the primary antibodies at 4° C. overnight (>16 hrs) diluted in PBS+1% BSA. Following incubation, the cells were rinsed 4 times PBS+0.2% Triton X-100, and incubated with secondary antibodies at room temperature for 2 hours. The images were visualized using an Olympus IX71 inverted fluorescence microscope or a Nikon A1 Confocal Laser microscope.
The secondary antibodies were purchased from Invitrogen (AlexaFluor-549 and AlexaFluor-488). The quantification was performed by counting at least 5 random fields at 20× magnification and calculating the average and standard deviation.
The subject of assay [3] is mouse ESC-derived endoderm / anterior foregut endoderm cells. The note with it: after 2 days TGFβ inhibition, then BMP4/FGF2/WNT agonist cocktail 2 days. An excerpt:
Dorsomorphin inhibits BMP signaling through the SMAD pathway while PD98059 inhibits MAPK signaling.
A recent report described a monolayer-based strategy using synergistic activation of Nodal and Wnt-β-catenin signaling as well as staged BMP4 inhibition to direct mouse ES cells towards an endoderm fate with high efficiency (Sherwood et al., 2011). This technology was adapted herein to generate definitive endoderm (DE) from mouse ES cells. […] Snoeck and colleagues reported that Noggin (a BMP inhibitor) synergized with SB431542 (a TGFβ inhibitor) to suppress a posterior endoderm fate (Cdx2+) in favor of an anterior endoderm fate (Sox2+) (Green et al., 2011). […] Endoderm was treated with combinations of Activin (a TGFβ agonist), A-83-01 (a TGFβ antagonist), BMP4, and Dorsomorphin (a BMP4 antagonist) for 2 days (FIG. 2B). The number of FoxA2+Sox2+ anterior endoderm cells was compared to the total number of FoxA2+ endoderm cells (FIG. 2B). The treated cells were further exposed to the BMP4/FGF2/WNT agonist cocktail for another 2 days to examine their competence to generate Nkx2.1+ cells (FIG. 2B). […] It was tested if their inhibition would enhance anteriorization together with a TGFβ inhibitor.
The expression of lung and other anterior cell fate lineage genes including FoxN1 (thymus), Pax8 (thyroid), and Pax9 and Tbx1 (pharyngeal pouch endoderm) was analyzed by real-time qPCR (Figure S4A).
It was tested if BMP4, FGF2, and WNT signaling are each required to specify lung endoderm from the anterior foregut in an in vitro mouse ESC differentiation system. To do this, anteriorized endoderm cells were exposed to combinations of BMP4, FGF2 and WNT agonists and antagonists (FIGS. 3A and B).
These complexes translocate to the nucleus and activate expression of target genes (von Bubnoff and Cho, 2001; Chen et al., 2004; Sieber et al., 2009; Miyazono et al., 2010). Besides Smad1/5/8-mediated transcription, BMP-induced receptor complexes can activate the mitogen-activated protein kinase (MAPK) pathway via ERK, […] or p38 (Kozawa et al., 2002).
Mouse Endoderm Anteriorization and Nkx2.1 Cell Differentiation: Mouse definitive endoderm was generated as described herein. To anteriorize endoderm, on and after day 5, the cells were split and re-seeded on to the plates pre-coated with 804G-conditioned medium and fed with DO medium+0.5-1 μM A8301 (CalBiochem, 616454) for 2 days.

A further assay relates to human iPSC and ESC lines. In words: Definitive endoderm generation from human iPSC/ESC (FOXA2/SOX17 co-staining). Format: cell-based. The note with it: screen of multiple PI3K inhibitors (LY-294002, ZSTK474, Wortmannin, PI828, NVP-BKM120, PIK-75). The procedure: The endoderm is one of the three primary germ cell layers in the embryo. It forms the embryonic gut which in turn gives rise to the epithelia of the lungs and digestive organs. Therefore, the first essential step for directing human iPSC towards a lung lineage is to generate endoderm cells, preferably with high efficiency. […] For example, the current published protocol (Mou et al., 2012; RPMI+2% B27+100 ng/ml TGF-beta agonist Activin A+5 uM LY-294002 PI3K Inhibitor) is effective in several human iPSC and ESC lines with definitive endoderm efficiency higher than 90%. In some “difficult” or “resistant” cell lines, this same protocol generates definitive endoderm that varies between low efficiency (<30%) to medium efficiency (40-70%). […] Therefore, this protocol is much more cost-effective than prior protocols. […]
This protocol permits a remarkable 90% or greater, including 91%, 92%, 93%, 94%, 95%, 96%, 97%, and even as high as 98% or more, of human iPSC/ESC cells to be converted into definitive endoderm cell as determined by nuclear staining for the transcription factors Foxa2 and Sox17. […] Furthermore, this protocol can be universally applied to multiple cell lines including several “difficult” cell lines that were determined to have low efficiency of definitive endoderm generation. […]

On to `Cc1cccc(-c2nn(C(=S)Nc3ccccc3)cc2-c2ccnc3ccccc23)n1` [A-83-01], for which the “induction of SOX2 expression in DE cells, efficiency” value in assay [1] (4 days of treatment) is 50%-60. Besides, the “FoxA2+Sox2+ anterior endoderm (of total FoxA2+ cells)” value in assay [2] is reported as 40%-55. In addition, the “Nkx2.1+ cells (of total cells)” value in assay [3] is reported as 7%-13.

For the molecule `FC(F)c1nc2ccccc2n1-c1nc(N2CCOCC2)nc(N2CCOCC2)n1` [ZSTK474], in the assay on human iPSC and ESC lines, the “potency for definitive endoderm generation” value is “most potent”.

B1: Noggin: a BMP4 antagonist (protein, UniProt Q13253 28-232, looked up)
Noggin: QHYLHIRPAPSDNLPLVDLIEHPDPIFDPKEKDLNETLLRSLLGGHYDPGFMATSPPEDRPGGGGGAAGGAEDLAELDQLLRQRPSGAMPSEIKGLEFSEGLAQGKKQRLSKKLRRKLQMWLWSQTFCPVLYAWNDLGSRFWPRYVKVGSCFSKRSCSVPEGMVCKPSKSVHLTVLRWRCQRRGGQRCGWIPIQYPIISECKCSC
For B1, the requirement for anteriorization result in assay [1] is listed as “not necessary”.
